The source of these data is US11759651B2, “In vivo visualization and control of pathological changes in neural circuits” (THE REGENTS OF THE UNIVERSITY OF CALIFORNIA, priority 2011, dated 2023).

Assay [1] concerns hippocampal network activity. The settings on record: cited from earlier work.
Assay [2] concerns APP^L/S mice. The experiment in a line: Choline acetyltransferase immunostaining of basal forebrain sections. Particulars: APP^L/S mice treated with LM11A-31. Format: in vivo, mouse. How it is done: Scale bars=25 μm. b, Photomicrograph of choline acetyltransferase-immunostained basal forebrain sections. […] Statistical significance was determined using ANOVA and post-hoc Student-Neuman-Keuls testing.

In assay [3] the test system is APP^L/S mice. The experiment in a line: APP immunolabeling for dystrophic neurites and Thioflavin S staining for amyloid plaques in hippocampus. Format: in vivo. Particulars: APP^L/S mice given vehicle or LM11A-31; transgenic mouse model of AD.
Assay [4] deals with APP/PS1 mice. Kind of assay: LTP in the hippocampus. The format is in vivo, mouse. The settings on record: APP/PS1-vehicle vs. APP/PS1-LM11A-31, p=0.02, wt-vehicle vs. wt-LM11A-31, NS.
For assay [5], the system named is APPL/S mice. The experiment in a line: Object recognition test. The format is in vivo, mouse. The settings on record: ANOVA and post-hoc Student-Neuman-Keuls testing.
Where [6] appears, read: 10 μM NBQX and 25 μM D-AP5 applied together, stimulus pulse applied to DG, 400 μm-thick ventral hippocampal slice.

Read-outs that look alike come from different tables or passages of the source.

On to `COc1ccc(-c2ccc(=N)n(CCCC(=O)O)n2)cc1` [GABAzine], for which, in assay [1], the VSDI signal result was “confirmed signal extinction”.
As for `NS(=O)(=O)c1cccc2c1c([N+](=O)[O-])cc1nc(O)c(O)nc12` [NBQX], in assay [1] (setting [6]), the VSDI signal entry is “abolished”.
With `NC(CCCP(=O)(O)O)C(=O)O` [D-AP5], in assay [1] (setting [6]), the VSDI signal entry is recorded as “abolished”.
As for `CC[C@H](C)[C@H](N)C(=O)NCCN1CCOCC1` [LM11A-31], the “length, volume and branching of cholinergic neurites in the basal forebrain” value in assay [2] was “increased length, volume, and branching of cholinergic neurites”. The “dystrophic neurites and amyloid plaque formation in the hippocampus” value in assay [3] is recorded as “rescued significantly”. Besides, the LTP result in assay [4] is “normalizes LTP”. For the same molecule, the object recognition deficits entry in assay [5] is reported as “prevented object recognition deficits”.
